Experimental data taken from patent US20100331348A1, “TROPANE DERIVATIVES USEFUL AS PESTICIDES” (SYNGENTA CROP PROTECTION, INC., priority 2007, published 2010).

Key:
[1] = system: Erysiphe graminis f.sp. tritici; assay: Erysiphe graminis f.sp. tritici (wheat powdery mildew) leaf disk assay; assay type: in vivo; conditions: Blumeria graminis, foliar, 96 h, preventive, four days after inoculation, read-out: control of fungal infection, Erysiphe graminis fsp. tritici
[2] = system: Puccinia recondita f.sp. tritici; assay: Puccinia recondita f.sp. tritici (wheat brown rust) leaf disk assay; assay type: in vivo; conditions: foliar, 216 h, preventive, nine days after inoculation, read-out: control of fungal infection, Puccinia recondita f.sp. tritici

SMILES | pest or weed control at 200 ppm [1] [%] | pest or weed control at 200 ppm [2] [%]
COc1cc(CON=C2CC3CCC(C2)N3c2ncnc3sccc23)nc(N)n1 [Example 5.172] | ≥ 80 | ≥ 80
Ic1ccccc1CON=C1CC2CCC(C1)N2c1ncnc2sccc12 [Example 5.201] | ≥ 80 | ≥ 80
CCc1ncnc(N2C3CCC2CC(=NOCc2cc(F)ccc2Br)C3)c1Cl [Example 5.83] |  | ≥ 80
FC(F)(F)Sc1ccc(CON=C2CC3CCC(C2)N3c2ncnc3sccc23)cc1 [Example 5.230] | ≥ 80 | ≥ 80
CC(=O)CCc1ccc(OC2C[C@H]3CC[C@@H](C2)N3c2ncnc3sccc23)cc1 (some centres unmarked) [Example 2.40] |  | ≥ 80
CCc1ncnc(N2C3CCC2CC(=NOCc2ccccc2I)C3)c1Cl [Example 5.46] | ≥ 80 | ≥ 80
N#Cc1ccccc1-c1ccc(CON=C2CC3CCC(C2)N3c2ncnc3sccc23)cc1 [Example 5.206] |  | ≥ 80
CCc1ncnc(N2C3CCC2CC(=NOCc2cccc(Cl)c2)C3)c1Cl [Example 5.37] | ≥ 80 | ≥ 80
C#CCN(CC#C)C1C[C@H]2CC[C@@H](C1)N2c1ncnc2sccc12 (some centres unmarked) [Example 4.15] |  | ≥ 80
CCc1ncnc(N2C3CCC2CC(=NOCc2ccc(OCc4ccccc4)cc2)C3)c1Cl [Example 5.64] | ≥ 80 | ≥ 80
CCc1ncnc(N2C3CCC2CC(CC(=O)NC(C)c2ccccc2)C3)c1Cl (centres unmarked) [Example 7.31] |  | ≥ 80
CCCNC(=O)CC1CC2CCC(C1)N2c1ncnc(CC)c1Cl (centres unmarked) [Example 7.30] |  | ≥ 80
CC(NC(=O)CC1CC2CCC(C1)N2c1ncnc2sccc12)c1ccccc1 (centres unmarked) [Example 7.13] |  | ≥ 80
CCc1ncnc(N2C3CCC2CC(=CC(=O)NC(C)c2ccccc2)C3)c1Cl (centres unmarked) [Example 3.10] |  | ≥ 80
CSc1nc(Cl)c(-c2ccccc2)c(ON=C2CC3CCC(C2)N3c2ncnc3sccc23)n1 [Example 5.254] |  | ≥ 80
CCCOC(=O)c1ccc(OC2C[C@H]3CC[C@@H](C2)N3c2ncnc3sccc23)cc1 (some centres unmarked) [Example 2.226] |  | ≥ 80
O=C(Cc1ccccc1)c1ccc(OC2C[C@H]3CC[C@@H](C2)N3c2ncnc3sccc23)cc1 (some centres unmarked) [Example 1.257] |  | ≥ 80
C(#Cc1ccccc1)CC=C1CC2CCC(C1)N2c1ncnc2sccc12 [Example 3.26] |  | ≥ 80
CCc1ncnc(N2[C@@H]3CC[C@H]2CC(Oc2ccc(F)c(F)c2)C3)c1Cl (some centres unmarked) [Example 2.125] | ≥ 80 | 
CCc1ncnc(N2C3CCC2CC(=NOc2cc(Oc4ccccc4)ncn2)C3)c1Cl [Example 5.108] | ≥ 80 | 
Cc1ccc(-c2nc(Cl)c(C)c(OC3C[C@H]4CC[C@@H](C3)N4c3ncnc4sccc34)n2)cc1 (some centres unmarked) [Example 1.97] | ≥ 80 | 
CCC(=O)c1cc(F)c(OC2C[C@H]3CC[C@@H](C2)N3c2ncnc(CC)c2Cl)c(F)c1 (some centres unmarked) [Example 2.207] | ≥ 80 | 
CCc1ncnc(N2C3CCC2CC(=NOCc2cc(C)cc(C)c2)C3)c1Cl [Example 5.11] |  | ≥ 80
CCc1ncnc(N2C3CCC2CC(=NOc2cc(OC)nc(OC)n2)C3)c1Cl [Example 5.97] | ≥ 80 | 
ON=C1CC2CCC(C1)N2c1ncnc2sccc12 [Example 5.127] | ≥ 80 | 
CCc1nc(Cl)c(C)c(ON=C2CC3CCC(C2)N3c2ncnc3sccc23)n1 [Example 5.171] | ≥ 80 | 
Cc1cc(Cl)nc(CON=C2CC3CCC(C2)N3c2ncnc3sccc23)n1 [Example 5.132] | ≥ 80 | 
Cn1cc(C(=O)N2[C@@H]3CC[C@H]2CC(Oc2cccc(C(F)(F)F)n2)C3)c(C(F)(F)F)c1 (some centres unmarked) [Example 2.197] |  | ≥ 80
CCc1ncnc(N2C3CCC2CC(=NOCc2ccccc2CCl)C3)c1Cl [Example 5.42] | ≥ 80 | 
